Laboratory results reported in US8450374B2, “Pan-antagonists for the androgen receptor and androgen receptor mutants associated with anti-androgen withdrawal” (priority 2009, dated 2013).
Residue numbers refer to the chain shown, from its start.

Legend:
AR wt = target: T1, AR wt (Homo sapiens, UniProt P10275); test: Competitive binding assay, [3H]DHT, transfected COS-7 cells, wild-type AR; set-up: expressed in transfected cells; host or cells: COS-7; conditions: 8 nM [3H]-DHT, read-out: Binding affinity (Ki), AR wt
T1 sequence (P10275 1-920): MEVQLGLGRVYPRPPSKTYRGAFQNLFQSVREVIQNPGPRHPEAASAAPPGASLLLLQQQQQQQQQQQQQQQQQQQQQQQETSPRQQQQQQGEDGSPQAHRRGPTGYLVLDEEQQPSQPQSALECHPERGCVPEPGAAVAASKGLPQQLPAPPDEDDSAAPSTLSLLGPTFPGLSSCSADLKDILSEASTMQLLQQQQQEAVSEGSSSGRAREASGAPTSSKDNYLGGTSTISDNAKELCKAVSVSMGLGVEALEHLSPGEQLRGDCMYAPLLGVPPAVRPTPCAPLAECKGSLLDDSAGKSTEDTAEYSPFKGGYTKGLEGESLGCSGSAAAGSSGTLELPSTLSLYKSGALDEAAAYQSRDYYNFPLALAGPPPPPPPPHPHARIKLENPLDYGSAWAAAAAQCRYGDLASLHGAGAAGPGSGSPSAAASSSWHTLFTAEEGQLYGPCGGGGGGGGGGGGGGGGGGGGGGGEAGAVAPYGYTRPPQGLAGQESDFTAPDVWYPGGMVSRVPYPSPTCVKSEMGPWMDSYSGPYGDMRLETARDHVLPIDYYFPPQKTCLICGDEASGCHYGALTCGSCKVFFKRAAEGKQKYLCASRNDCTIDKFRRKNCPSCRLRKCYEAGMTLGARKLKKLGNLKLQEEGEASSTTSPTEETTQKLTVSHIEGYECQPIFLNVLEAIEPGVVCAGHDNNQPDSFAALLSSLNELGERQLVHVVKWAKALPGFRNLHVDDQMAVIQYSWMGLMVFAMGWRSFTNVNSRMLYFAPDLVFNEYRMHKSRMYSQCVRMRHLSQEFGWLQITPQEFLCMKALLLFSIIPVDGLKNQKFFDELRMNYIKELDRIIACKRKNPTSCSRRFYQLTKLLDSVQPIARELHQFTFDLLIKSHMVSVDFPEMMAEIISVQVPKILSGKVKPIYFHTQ
Description: Twenty-four hours prior to transfection, COS-7 cells were seeded at a density of 70,000 cells per well in 24-well cell culture plates and grown in phenol red free Dulbecco's Modified Eagle Medium (DMEM) supplement with 10% cosmic calf serum (CCS). The cells were transfected with a prokaryotic expression vector encoding the wild-type androgen receptor or mutant androgen receptor using Lipofectamine (Invitrogen) following manufacturer's protocol. […] Cells were washed with PBS and harvested in 2% SDS, 10% glycerol, and 10 mM Tris, pH 6.8, and radioactivity determined by scintillation counting.

AR W741L = target: T2, AR W741L (Homo sapiens, UniProt P10275, W742L); test: Transcription assay (ARE-luciferase reporter) in CV-1 cells, AR W741L; assay type: cell-based; conditions: for Antagonist efficacy (RLU value at IC50), AR W741L: in competition with 250 nM DHT
T2 construct: expressed in transfected cells; host or cells: CV-1
T2 sequence (P10275 1-920 W742L): T1 sequence (P10275 1-920) with W742L
Description: Twenty-four hours prior to transfection, CV-1 cells were seeded at a density of 45,000 cells per well in 24-well cell culture plates and grown in phenol red free Dulbecco's Modified Eagle Medium (DMEM) supplemented with 10% cosmic calf serum (COS). ARE-luciferase reporter and Renilla-Luc as the internal standard and a prokaryotic expression vector encoding the wild-type androgen receptor or mutant androgen receptor were transfected with Lipofectamine (Invitrogen) following manufacturer's protocol. Five hours after transfection, media was added containing the appropriate concentrations of ligands. The cells were allowed to incubate for 38 hours before harvesting by passive lysis buffer. Cell extracts were immediately assayed using the Dual Luciferase Assay (Promega) with a Perkin-Elmer Microbeta Luminometer. […] Dose-response data was analyzed by nonlinear regression analysis using GraphPad Prism.

In the case of `CN(C)CCCOc1cccc(Cc2ccccc2S(=O)(=O)CC(C)(O)C(=O)Nc2ccc(C#N)c(C(F)(F)F)c2)c1` (centres unmarked) [PAN22], the Ki (AR wt) is reported as 2.3 µM, the IC50 (AR W741L) is reported as 3 ± 1.8 µM and the “Antagonist efficacy (RLU value at IC50), AR W741L” value (“Antagonist efficacy” for short) (AR W741L) is reported as “(52% ± 4.9%)”.

With `CC(O)(CS(=O)(=O)c1ccccc1-c1ccccc1O)C(=O)Nc1ccc(C#N)c(C(F)(F)F)c1` (centres unmarked) [PAN41, N-(4-cyano-3-(trifluoromethyl)phenyl)-2-hydroxy-3-(2′-hydroxybiphenyl-2-ylsulfonyl)-2-methylpropanamide] the IC50 (AR W741L) was 5.8 ± 1.6 µM and the “Antagonist efficacy” value (AR W741L) was “(50% ± 1.0%)”.

For `CN(C)CCCOc1cccc(-c2ccccc2S(=O)(=O)CC(C)(O)C(=O)Nc2ccc(C#N)c(C(F)(F)F)c2)c1` (centres unmarked) [PAN52], the Ki (AR wt) was 3 µM, the IC50 (AR W741L) was 12.2 ± 6.2 µM and the “Antagonist efficacy” value (AR W741L) was “(53% ± 5.2%)”.

`CN(C)CCCOc1ccc(-c2ccccc2S(=O)(=O)CC(C)(O)C(=O)Nc2ccc(C#N)c(C(F)(F)F)c2)cc1` (centres unmarked) [PAN62] was tested, and the Ki (AR wt) was 25 µM, the IC50 (AR W741L) was 11 ± 11 µM and the “Antagonist efficacy” value (AR W741L) was “(62% ± 12%)”.
